Patent publication US20240294499A1, “TARGETED PROTEIN DEGRADATION USING BIFUNCTIONAL COMPOUNDS THAT BIND UBIQUITIN LIGASE AND TARGET MCL-1 PROTEIN” (Captor Therapeutics S.A., priority 2021, published 2024)

How the values were obtained:
[1] = biological target: T1, MCL-1 protein (Homo sapiens, UniProt Q07820); assay: OPM-2 cells: MCL-1 protein degradation, Simple Western; type: cell-based; set-up: endogenous in cells; host or cells: OPM-2; details: OPM-2 cell line, 6 h treatment, 100 nM compound, vs DMSO
T1 sequence (Q07820 whole entry): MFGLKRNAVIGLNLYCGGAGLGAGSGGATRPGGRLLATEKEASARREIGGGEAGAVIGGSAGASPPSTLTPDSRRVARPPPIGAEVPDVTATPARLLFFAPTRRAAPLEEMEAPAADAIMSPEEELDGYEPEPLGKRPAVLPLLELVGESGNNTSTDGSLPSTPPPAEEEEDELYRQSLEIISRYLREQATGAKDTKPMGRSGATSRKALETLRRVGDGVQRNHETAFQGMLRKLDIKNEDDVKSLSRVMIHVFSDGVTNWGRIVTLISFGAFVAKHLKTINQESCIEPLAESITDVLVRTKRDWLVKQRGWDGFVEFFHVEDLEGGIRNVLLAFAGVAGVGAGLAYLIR
Description: The effect of various compounds of the invention and the reference compounds on MCL-1protein degradation in the OPM-2 cell line was investigated, using the degradation assay protocol below.
(§1) OPM-2 cells were maintained in RPMI-1640 medium, supplemented with penicillin/streptomycin and 10% Fetal Bovine Serum (FBS). During the treatment, FBS concentration was reduced to 1%.
(§2) Compound stocks were pre-diluted in DMSO and added directly to the cells growth medium (final DMSO concentration: 0.5%).
(§3) OPM-2 cells were collected, centrifuged (250 rcf, 5 min), resuspended in a growth medium containing 1% FBS and counted. The cell suspension was then adjusted to 1×10^6 cell/ml using a growth medium containing 1% FBS. Afterwards, 0.5×10^6 cells were seeded on 24-well plates in 0.5 mL of medium per well. Immediately after seeding cells, compounds in appropriate concentrations were added to the cell culture medium.
Following the treatment with the compounds, cells were collected from the plates and suspended in a lysis buffer (2% SDS, 50 mM Tris, pH 8.0, 100 U/ml Pierce Universal Nuclease for Cell Lysis, cOmplete EDTA-free Protease Inhibitor Cocktail) and incubated on ice for 45 min.
The following steps, including sample loading, protein separation, immunoprobing or labelling, washes and detection analysis was performed using Jess from ProteinSimple, an automatic system for analyzing protein levels in cell lysates (12-230 kDa Jess or Wes separation module 8×25 capillaries, protein normalization assay, no. SM-PN01-1). The Protein of Interest was detected using MCL-1 (D35A5) Rabbit monoclonal antibody (Cell Signaling, #5453, LOT: 4). Antibody was diluted in a ratio of 1:100 in Antibody diluent.
[%] of protein reduction is calculated in comparison to the cells treated with DMSO, which stand for 0%.
The results for the 6 h treatment with 100 nM compounds are shown in Table 9, using the following labels: • <20% for 0-19% of MCL-1 protein reduction, • ≥20% for 20-39% of MCL-1 protein reduction, • ≥40% for 40-100% of MCL-1 protein reduction.

[2] = biological target: T1, MCL-1 protein; assay: OPM-2 cells: MCL-1 protein degradation, Western blot; type: cell-based; set-up: endogenous in cells; host or cells: OPM-2; details: OPM-2 cell line, 6 h treatment, 100 nM compound, vs DMSO
Description: The effect of various compounds of the invention and the reference compounds on MCL-1 protein degradation in the OPM-2 cell line was investigated, using the degradation assay protocol below.
as §1, §2, §3
Following the treatment with the compounds, cells were collected from the plates and suspended in a lysis buffer (2% SDS, 50 mM Tris, pH 8.0, 100 U/ml Pierce Universal Nuclease for Cell Lysis, complete EDTA-free Protease Inhibitor Cocktail) and incubated on ice for 45 min. The amount of protein was determined via BCA assay, and the equal quantity of each sample was loaded on the precast gel for the protein separation. Following the electrophoresis and transfer to the membrane, the membrane was stained with Ponceau (0.1% (w/v) Ponceau in 5% acetic acid). After total protein detection, the stain was washed out using TBST. After the antibody staining for MCL-1 and α-tubulin, the membranes were washed and signals developed.
Densitometric values for MCL-1 were normalized to total protein level (the Ponceau Staining). [%] of protein reduction is calculated in comparison to the cells treated with DMSO, which stand for 0%.
The results for the 6 h treatment with 100 nM compounds are shown in Table 9, using the following labels: • <30% for 0-29% of MCL-1 protein reduction, • ≥30% for 30-49% of MCL-1 protein reduction, • ≥50% for 50-100% of MCL-1 protein reduction.

[3] = tested on: MV-4-11 cells; assay: Cell viability assay (CellTiter-Glo), MV-4-11; type: cell-based; details: Homo sapiens, MV4-11, 24 hours incubation, 1% FBS, read-out: Average pIC50 by molecule MV-4-11 (converted)
Outline: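 Luminescent ATP readout (CellTiter-Glo) at 24 hours measured viability, expressed relative to DMSO-treated wells. Compound was added directly to the medium as a 9–12-point threefold series starting at 30 uM, at 0.5% final DMSO. The medium contained FBS reduced to 1%.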

[4] = biological target: [MCL-1]-[compound of formula (I)]-[CRBN/DDB1] complex (Homo sapiens, UniProt Q07820+Q96SW2); assay: AlphaLISA dose response ternary complex formation assay; type: binding; details: read-out: AlphaLISA dose response Average pEC50 by molecule (converted)
Chain of [MCL-1]-[compound of formula (I)]-[CRBN/DDB1] complex (Q07820 whole entry): as above
Chain of [MCL-1]-[compound of formula (I)]-[CRBN/DDB1] complex (Q96SW2 whole entry): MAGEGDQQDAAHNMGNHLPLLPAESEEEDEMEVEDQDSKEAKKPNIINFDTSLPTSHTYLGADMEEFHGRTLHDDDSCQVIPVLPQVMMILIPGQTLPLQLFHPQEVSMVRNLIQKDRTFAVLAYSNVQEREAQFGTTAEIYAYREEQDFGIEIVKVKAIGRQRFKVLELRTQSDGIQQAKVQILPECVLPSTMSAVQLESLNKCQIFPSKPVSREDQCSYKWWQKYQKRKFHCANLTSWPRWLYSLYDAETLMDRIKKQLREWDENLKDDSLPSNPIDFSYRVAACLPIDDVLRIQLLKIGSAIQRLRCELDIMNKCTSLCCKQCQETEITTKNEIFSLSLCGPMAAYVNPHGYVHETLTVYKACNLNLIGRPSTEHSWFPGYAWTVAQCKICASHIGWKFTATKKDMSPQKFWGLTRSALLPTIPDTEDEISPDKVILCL
Chain of [MCL-1]-[compound of formula (I)]-[CRBN/DDB1] complex (Q16531 whole entry partner): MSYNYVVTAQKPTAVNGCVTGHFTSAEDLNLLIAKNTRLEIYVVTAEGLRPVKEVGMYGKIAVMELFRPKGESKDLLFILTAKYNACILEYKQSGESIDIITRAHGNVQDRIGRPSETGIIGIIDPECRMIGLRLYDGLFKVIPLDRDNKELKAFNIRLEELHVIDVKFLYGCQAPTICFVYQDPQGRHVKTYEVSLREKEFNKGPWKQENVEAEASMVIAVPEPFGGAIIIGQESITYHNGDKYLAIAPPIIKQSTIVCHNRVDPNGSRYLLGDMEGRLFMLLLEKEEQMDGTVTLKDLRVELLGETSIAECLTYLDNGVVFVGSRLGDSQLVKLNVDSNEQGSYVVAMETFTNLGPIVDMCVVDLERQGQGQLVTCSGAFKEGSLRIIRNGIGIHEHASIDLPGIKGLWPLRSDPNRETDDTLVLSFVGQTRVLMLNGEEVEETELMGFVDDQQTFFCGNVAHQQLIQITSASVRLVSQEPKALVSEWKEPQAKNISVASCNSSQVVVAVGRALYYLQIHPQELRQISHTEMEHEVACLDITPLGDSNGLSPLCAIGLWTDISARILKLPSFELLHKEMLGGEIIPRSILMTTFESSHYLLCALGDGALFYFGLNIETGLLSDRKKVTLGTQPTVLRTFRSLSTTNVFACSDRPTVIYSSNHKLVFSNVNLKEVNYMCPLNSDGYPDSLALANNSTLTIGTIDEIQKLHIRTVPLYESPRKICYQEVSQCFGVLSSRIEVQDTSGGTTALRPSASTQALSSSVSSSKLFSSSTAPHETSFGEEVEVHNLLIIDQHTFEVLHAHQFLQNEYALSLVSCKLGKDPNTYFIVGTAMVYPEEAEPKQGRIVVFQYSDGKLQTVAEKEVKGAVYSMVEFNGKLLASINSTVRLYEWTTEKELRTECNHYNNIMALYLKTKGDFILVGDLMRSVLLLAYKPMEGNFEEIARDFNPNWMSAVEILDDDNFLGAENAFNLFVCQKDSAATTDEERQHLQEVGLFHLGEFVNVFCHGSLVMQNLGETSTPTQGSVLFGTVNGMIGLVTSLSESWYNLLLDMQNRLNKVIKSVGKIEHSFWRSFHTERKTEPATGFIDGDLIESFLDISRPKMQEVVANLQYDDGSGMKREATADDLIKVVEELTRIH
Outline: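 EC50 comes from dose–response of AlphaLISA luminescence (excitation 680, emission 615 nm), normalised between DMSO background and an internal positive control, with concentrations past the hook point dropped. Ternary complex formed by mixing bead-bound biotin-hMCL-1 and His-CRBN/DDB1 (protein solutions 40 and 200 nM) with compound in 2% DMSO, 30 min, 25 °C.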

[5] = tested on: OPM-2 cells; assay: Cell viability assay (CellTiter-Glo), OPM-2; type: cell-based; details: Homo sapiens, 24 hours incubation, 1% FBS, read-out: Average pIC50 by molecule OPM-2 (converted)
Description: The effect of various compounds of the invention on the viability of OPM-2, MV-4-11 and ARH-77 cell lines was investigated, using the CTG protocol described below.
OPM-2 and MV-4-11 cell lines are derived from multiple myeloma and acute myeloid leukaemia, respectively. Both cell lines are described in the literature as MCL-1 dependent lines, as opposed to lymphoblast-like ARH-77 cell line, which is described as independent of MCL-1 (Tron A E et al. Nat Commun. 2018; 9: 5341; Caenepeel S et al. Cancer Discov. 2018 December; 8(12):1582-1597).
Cells (OPM-2, MV-4-11 or ARH-77) were seeded on […] in a growth medium with FBS reduced to 1%. Next, compound stocks were pre-diluted in DMSO and added directly to the cells growth medium (final DMSO concentration: 0.5%). Compound concentrations used in this assay: 1/3 dilutions starting at 30 uM (9 to 12 points).
After 24 hours of incubation, cell viability was evaluated using CellTiter-Glo Luminescent Cell Viability Assay (Promega, cat #G7572). Luminescence signal was measured using a CLARIOstar Plus Multi-Mode Microplate Reader (574-590 nm).
Results were normalized to DMSO control.

[6] = tested on: iCELL Cardiomyocytes; assay: Cardiac safety: caspase 3 and 7 activation (Caspase-Glo 3/7) in iCELL Cardiomyocytes; type: cell-based; details: for Fold change at 1.2 uM (caspase 3/7 activity in cardiomyocytes): 24 hours incubation, vs DMSO; for activity in caspase activity assay in cardiomyocytes: as opposed to reference compound AZD5991
Description: The effect of various compounds of the invention and a reference compound AZD5991 on cardiac safety was investigated by the evaluation of caspase 3 and 7 activation using Caspase-Glo 3/7 Assay (Promega; G8092) in iCELL™ Cardiomyocytes from FUJIFILM Cellular Dynamics (Catalog number: 11713). In the Caspase-Glo® 3/7 Assay, the luminescence (measured as Relative Luciferase Units, RLU) is proportional to the amount of caspase activity present in each sample.
The assay is initiated by thawing and seeding iCell® Cardiomyocytes as specified in the User Guide. After 48 hours, the cells are washed to remove unattached cells and debris and immediately treated with compounds or DMSO diluted in the maintenance medium (FCDI; cat: M1003). Compound concentrations used in this assay: 7 points 1/3 dilution curve starting at 100 uM. After 24 hours of incubation with compounds, caspase activity is measured by the addition of the Caspase-Glo® 3/7 Reagent followed by the luminescence measurement.
The analysis of the results is performed by calculation of the fold change in caspase 3/7 activity at a given compound concentration. Fold change is calculated with the formula: […]
where: • RLU Xi is the Relative Luciferase Units of sample I; • RLU BG is the Background Relative Luciferase Units; • RLU C is the Relative Luciferase Units of Control (DMSO).
The experiments were performed in technical duplicates.

Compound | Simple Western, % of protein reduction [1] | Western blot, % of protein reduction [2] | IC50 [3] | EC50 [4] | IC50 [5] | Fold change at 1.2 uM (caspase 3/7 activity in cardiomyocytes) [6] | activity in caspase activity assay in cardiomyocytes [6]
Cc1cc(OCCCc2c(C(=O)O)n(CCN3CCN(C(=O)COc4cccc5c4C(=O)N(C4CCC(=O)NC4=O)C5=O)CC3)c3c(-c4c(C)nn(C)c4C)c(Cl)ccc23)cc(C)c1Cl (stereo not shown) [Compound 201, 6-chloro-3-(3-(4-chloro-3,5-dimethylphenoxy)propyl)-1-(2-(4-(2-((2-(2,6-dioxopiperidin-3-yl)-1,3-dioxoisoindolin-4-yl)oxy)acetyl)piperazin-1-yl)ethyl)-7-(1,3,5-trimethyl-1H-pyrazol-4-yl)-1H-indole-2-carboxylic acid] | ≥20% | ≥50% | ≤ 100 nM | < 100 nM | ≤ 1000 nM | – | –
Cc1nc2c(C(=O)NC3CCC(=O)NC3=O)cc(OCC(=O)N3CCN(CCn4c(C(=O)O)c(CCCOc5cccc6ccccc56)c5ccc(Cl)c(-c6c(C)nn(C)c6C)c54)CC3)cc2[nH]1 (stereo not shown) [Compound 263, 6-chloro-1-(2-{4-[2-({4-[(2,6-dioxopiperidin-3-yl)carbamoyl]-2-methyl-1H-1,3-benzodiazol-6-yl}oxy)acetyl]piperazin-1-yl}ethyl)-3-[3-(naphthalen-1-yloxy)propyl]-7-(1,3,5-trimethyl-1H-pyrazol-4-yl)-1H-indole-2-carboxylic acid] | ≥40% | ≥50% | ≤ 316 nM | < 100 nM | ≤ 1000 nM | – | –
Cc1nn(C)c(C)c1-c1c(Cl)ccc2c(CCCOc3cccc4cc(F)ccc34)c(C(=O)O)n(CCN3CCN(C(=O)COc4cccc5c4C(=O)N(C4CCC(=O)NC4=O)C5=O)CC3)c12 (stereo not shown) [Compound 214, 6-chloro-1-{2-[4-(2-{(2-(2,6-dioxopiperidin-3-yl)-1,3-dioxo-2,3-dihydro-1H-isoindol-4-yl]oxy}acetyl)piperazin-1-yl]ethyl}-3-{3-[(6-fluoronaphthalen-1-yl)oxy]propyl}-7-(1,3,5-trimethyl-1H-pyrazol-4-yl)-1H-indole-2-carboxylic acid] | ≥40% | ≥50% | ≤ 100 nM | < 10 nM | ≤ 316 nM | ≤1.5 ± 0.2 | little to no activity
Cc1nn(C)c(C)c1-c1c(Cl)ccc2c(CCCOc3cccc4ccccc34)c(C(=O)O)n(CCN3CCN(C(=O)COc4cccc5c4CN(C4CCC(=O)NC4=O)C5=O)CC3)c12 (stereo not shown) [Compound 206, 6-chloro-1-(2-(4-(2-((2-(2,6-dioxopiperidin-3-yl)-1-oxoisoindolin-4-yl)oxy)acetyl)piperazin-1-yl)ethyl)-3-(3-(naphthalen-1-yloxy)propyl)-7-(1,3,5-trimethyl-1H-pyrazol-4-yl)-1H-indole-2-carboxylic acid] | ≥40% | ≥50% | ≤ 100 nM | < 100 nM | ≤ 316 nM | ≤1.5 ± 0.2 | little to no activity
Cc1nn(C)c(C)c1-c1c(Cl)ccc2c(CCCOc3cccc4ccccc34)c(C(=O)O)n(CCN3CCN(C(=O)Cn4c(C)nc5c(C(=O)NC6CCC(=O)NC6=O)cccc54)CC3)c12 (stereo not shown) [Compound 266, 6-chloro-1-{2-[4-(2-{4-[(2,6-dioxopiperidin-3-yl)carbamoyl]-2-methyl-1H-1,3-benzodiazol-1-yl}acetyl)piperazin-1-yl]ethyl}-3-[3-(naphthalen-1-yloxy)propyl]-7-(1,3,5-trimethyl-1H-pyrazol-4-yl)-1H-indole-2-carboxylic acid] | ≥40% | – | ≤ 100 nM | < 100 nM | ≤ 316 nM | ≤1.5 ± 0.2 | little to no activity
Cc1nn(C)c(C)c1-c1cccc2c(CCCOc3cccc4ccccc34)c(C(=O)O)n(CCN3CCN(C(=O)COc4cccc5c4C(=O)N(C4CCC(=O)NC4=O)C5=O)CC3)c12 (stereo not shown) [Compound 241, 1-(2-(4-(2-((2-(2,6-dioxopiperidin-3-yl)-1,3-dioxoisoindolin-4-yl)oxy)acetyl)piperazin-1-yl)ethyl)-3-(3-(naphthalen-1-yloxy)propyl)-7-(1,3,5-trimethyl-1H-pyrazol-4-yl)-1H-indole-2-carboxylic acid] | ≥20% | ≥50% | ≤ 1000 nM | < 100 nM | – | – | –
